Measured values taken from ChEMBL document CHEMBL1201862, “PubChem BioAssay data set” (2004).
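Dose response: 5 concentrations. Exposure: 48 h. Format: 96-well plates. Endpoint: linear interpolation; highest concentration if not reached. Abbreviation: GI50, concentration required for 50% inhibition of growth.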 Active and inactive are the calls of the source. Cut-off read from the data, not from the text of the source: active = GI50 up to about 1.1 µM and inactive = higher.

Key:
Assay in all cases: NCI anticancer screen, dose series, 48 h
COLO 205 = system: COLO 205
A498 = system: A498
RXF 393 = system: RXF 393
SK-OV-3 = system: SK-OV-3
CAKI-1 = system: CAKI-1
MCF7 = system: MCF7
HCT-15 = system: HCT-15
786-0 = system: 786-0
SF-268 = system: SF-268
SR = system: SR
DU-145 = system: DU-145
SK-MEL-5 = system: SK-MEL-5
SF-539 = system: SF-539
UACC-257 = system: UACC-257
HT-29 = system: HT-29
NCI-H226 = system: NCI-H226
M14 = system: M14
TK-10 = system: TK-10
OVCAR-5 = system: OVCAR-5
OVCAR-3 = system: OVCAR-3

With CC(=O)Nc1ccc(-c2nc3ccccc3s2)cc1Cl the GI50 (COLO 205) was > 100 µM (inactive), the GI50 (A498) was 5.68 µM (inactive) and the GI50 (RXF 393) was 26.5 µM (inactive). The GI50 (SK-OV-3) was 40.6 µM (inactive), the GI50 (CAKI-1) was 56.5 µM (inactive) and the GI50 (MCF7) was < 0.0399 µM (active). The GI50 (HCT-15) was 41.4 µM, the GI50 (786-0) was > 78.3 µM (inactive) and the GI50 (SF-268) was 56.8 µM (inactive). The GI50 (SR) was > 100 µM (inactive), the GI50 (DU-145) was 55.6 µM (inactive) and the GI50 (SK-MEL-5) was > 100 µM (inactive). The GI50 (SF-539) was 16.3 µM (inactive), the GI50 (UACC-257) was > 41.1 µM (inactive) and the GI50 (HT-29) was > 95.5 µM (inactive). The GI50 (NCI-H226) was 0.762 µM (active), the GI50 (M14) was 68.7 µM (inactive) and the GI50 (TK-10) was 0.0664 µM (active). The GI50 (OVCAR-5) was 0.171 µM (active).

In the case of CCOC(=O)C1CCC(=O)N1C(=O)c1ccccc1 (stereo not given), the GI50 (A498) is reported as > 100 µM (inactive), the GI50 (RXF 393) is reported as > 100 µM (inactive) and the GI50 (CAKI-1) is reported as > 100 µM (inactive). For the same compound, the GI50 (MCF7) was > 100 µM (inactive), the GI50 (HCT-15) was > 100 µM and the GI50 (786-0) was > 100 µM (inactive). For the same compound, the GI50 (SF-268) was > 100 µM (inactive), the GI50 (SR) was > 100 µM (inactive) and the GI50 (DU-145) was > 100 µM (inactive). The GI50 (SK-MEL-5) was > 100 µM (inactive), the GI50 (SF-539) was > 100 µM (inactive) and the GI50 (UACC-257) was > 100 µM (inactive). For the same compound, the GI50 (HT-29) was > 100 µM (inactive), the GI50 (NCI-H226) was > 100 µM (inactive) and the GI50 (M14) was > 100 µM (inactive). The GI50 (TK-10) was > 100 µM (inactive), the GI50 (OVCAR-3) was > 100 µM (inactive) and the GI50 (OVCAR-5) was > 100 µM (inactive).

In the case of Cc1cccc2c(N)c3cccc(C(=O)NCCNCCN)c3nc12, the GI50 (COLO 205) is reported as 2.71 µM (inactive), the GI50 (A498) is reported as 23.7 µM (inactive) and the GI50 (RXF 393) is reported as 12.6 µM (inactive). The GI50 (SK-OV-3) was 26.9 µM (inactive), the GI50 (CAKI-1) was 3.8 µM (inactive) and the GI50 (MCF7) was 0.369 µM (active). For the same compound, the GI50 (HCT-15) was 12.4 µM, the GI50 (786-0) was 0.0644 µM (active) and the GI50 (SF-268) was 0.0698 µM (active). For the same compound, the GI50 (SR) was 8.09 µM (inactive), the GI50 (DU-145) was 2.62 µM (inactive) and the GI50 (SK-MEL-5) was 5.11 µM (inactive). For the same compound, the GI50 (SF-539) was 1.61 µM (inactive), the GI50 (UACC-257) was 26.2 µM (inactive) and the GI50 (HT-29) was 2.9 µM (inactive). The GI50 (M14) was 28.7 µM (inactive), the GI50 (TK-10) was 22.3 µM (inactive) and the GI50 (OVCAR-3) was 21.9 µM (inactive). For the same compound, the GI50 (OVCAR-5) was 22.8 µM (inactive).

With COc1ccccc1NC(=S)N/N=C/c1c(C)n(C)n(-c2ccccc2)c1=O the GI50 (COLO 205) was > 100 µM (inactive), the GI50 (A498) was 71 µM (inactive) and the GI50 (RXF 393) was 34.9 µM (inactive). For the same compound, the GI50 (SK-OV-3) was 35.3 µM (inactive), the GI50 (CAKI-1) was > 100 µM (inactive) and the GI50 (MCF7) was > 100 µM (inactive). For the same compound, the GI50 (HCT-15) was 41.3 µM, the GI50 (786-0) was > 100 µM (inactive) and the GI50 (SF-268) was 45.1 µM (inactive). For the same compound, the GI50 (SR) was 51.6 µM (inactive), the GI50 (DU-145) was 40.8 µM (inactive) and the GI50 (SK-MEL-5) was > 100 µM (inactive). The GI50 (SF-539) was 49.9 µM (inactive), the GI50 (UACC-257) was > 100 µM (inactive) and the GI50 (HT-29) was > 100 µM (inactive). The GI50 (NCI-H226) was 82.4 µM (inactive), the GI50 (M14) was 61.8 µM (inactive) and the GI50 (TK-10) was > 100 µM (inactive).

For COc1ccc(NC(=S)N/N=C(\C)c2nc3cccnc3[nH]2)cc1, the GI50 (COLO 205) was 4.52 µM (inactive), the GI50 (A498) was 14.3 µM (inactive) and the GI50 (SK-OV-3) was 13.5 µM (inactive). For the same compound, the GI50 (CAKI-1) was 3.96 µM (inactive), the GI50 (MCF7) was 3.41 µM (inactive) and the GI50 (HCT-15) was 4.36 µM. For the same compound, the GI50 (786-0) was 4.99 µM (inactive), the GI50 (SF-268) was 4.04 µM (inactive) and the GI50 (SR) was 3.86 µM (inactive). The GI50 (DU-145) was 6.17 µM (inactive), the GI50 (SK-MEL-5) was 4.33 µM (inactive) and the GI50 (SF-539) was 2.9 µM (inactive). The GI50 (UACC-257) was 3.52 µM (inactive), the GI50 (HT-29) was 5.37 µM (inactive) and the GI50 (NCI-H226) was 3.73 µM (inactive). The GI50 (TK-10) was 0.637 µM (active), the GI50 (OVCAR-3) was 1.79 µM (inactive) and the GI50 (OVCAR-5) was 6.11 µM (inactive).

For COc1ccc(NC(=O)CC(=O)N2N=C(N3CCCCC3)CC2c2ccccc2)cc1 (stereo not given), the GI50 (COLO 205) was > 100 µM (inactive), the GI50 (A498) was > 100 µM (inactive) and the GI50 (RXF 393) was > 100 µM (inactive). The GI50 (CAKI-1) was > 100 µM (inactive), the GI50 (MCF7) was > 100 µM (inactive) and the GI50 (HCT-15) was > 100 µM. The GI50 (786-0) was > 100 µM (inactive), the GI50 (SF-268) was > 100 µM (inactive) and the GI50 (SR) was > 100 µM (inactive). The GI50 (DU-145) was > 100 µM (inactive), the GI50 (SK-MEL-5) was > 100 µM (inactive) and the GI50 (SF-539) was > 100 µM (inactive). For the same compound, the GI50 (UACC-257) was > 100 µM (inactive), the GI50 (HT-29) was > 100 µM (inactive) and the GI50 (NCI-H226) was > 100 µM (inactive). For the same compound, the GI50 (M14) was > 100 µM (inactive), the GI50 (TK-10) was > 100 µM (inactive) and the GI50 (OVCAR-3) was > 100 µM (inactive). The GI50 (OVCAR-5) was > 100 µM (inactive).

Cn1c2ccccc2n2c3ncccc3c(=O)c(C#N)c12 was tested, and the GI50 (COLO 205) was 3.91 µM (inactive), the GI50 (A498) was 10.4 µM (inactive) and the GI50 (RXF 393) was 16.9 µM (inactive). For the same compound, the GI50 (SK-OV-3) was 17.3 µM (inactive), the GI50 (CAKI-1) was 5.31 µM (inactive) and the GI50 (MCF7) was 3.81 µM (inactive). For the same compound, the GI50 (HCT-15) was 6.18 µM, the GI50 (786-0) was 8.83 µM (inactive) and the GI50 (SF-268) was 18 µM (inactive). For the same compound, the GI50 (SR) was 3.73 µM (inactive), the GI50 (DU-145) was 6.5 µM (inactive) and the GI50 (SK-MEL-5) was 4.45 µM (inactive). The GI50 (UACC-257) was 26.5 µM (inactive), the GI50 (HT-29) was 5.51 µM (inactive) and the GI50 (NCI-H226) was 1.79 µM (inactive). For the same compound, the GI50 (M14) was 32.3 µM (inactive), the GI50 (TK-10) was 50.6 µM (inactive) and the GI50 (OVCAR-3) was 11 µM (inactive). The GI50 (OVCAR-5) was 24.5 µM (inactive).
